Legend:
[1] = test system: HeLa; assay: MTT test for inhibition of tumor cells, HeLa; assay type: cell-based; settings: 48 h
Procedure: HepG2, HeLa cell lines and human normal liver cells HL-7702 in a logarithmic growth period were centrifuged at 1000 rpm for 5 min, and the supernatant was discarded, the cells were suspended with a suitable amount of culture medium to adjust the cell concentration to 3.5×10^4/well, the cells were seeded in 96-well plates, and the following experimental groups were set:
100 μl of DMSO was added to each well, followed by shaking on a shaker for 30 min at 37° C., the absorbance (OD) was measured at 492 nm, and the MTT ratio was calculated as the OD value of drug group/OD value of negative control group.

[2] = test system: HepG2; assay: MTT test for inhibition of tumor cells, HepG2; assay type: cell-based; settings: 48 h
[3] = test system: HL-7702; assay: MTT test on human normal hepatocytes HL-7702; assay type: cell-based; settings: human normal hepatocytes HL-7702, MTT, 48 h
[4] = test system: MRC-5; assay: IC50 against human embryonic lung cells MRC-5; settings: for toxicity on normal cell line MRC-5 compared with etoposide: vs etoposide
[5] = test system: A549; assay: IC50 against human lung cancer cell A549; assay type: cell-based; settings: for antitumor activity on A549 compared with etoposide: vs etoposide
[6] = test system: MCF7; assay: IC50 against breast cancer cell MCF7; assay type: cell-based, human; settings: vs etoposide
[7] = test system: HMEC; assay: IC50 against human mammary epithelial cells HMEC; settings: for toxicity on normal cell line HMEC compared with etoposide: vs etoposide
[8] = test system: H8; assay: IC50 against human cervical immortalized cells H8; settings: for toxicity on normal cell line H8 compared with etoposide: vs etoposide

Row | Molecule | IC50 [1] | IC50 [2] | IC50 [3] | also measured
1 | 4β-S-(3-phenyl-1,3,4-thiadiazol-2(3H)thione potassium salt-5)-4′-demethylepipodophyllotoxin [Compound 26] | 48.49 ± 0.38 µM | 5.7 ± 0.33 µM |  | 
2 | 4β-S-(5-phenylbenzoxazol-2)-4′-demethylepipodophyllotoxin [Compound 12] | > 100 µM | 10.2 ± 0.46 µM | 56.8 ± 1.32 µM | 
3 | 4β-S-(6-chlorobenzoxazol-2)-4′-demethylepipodophyllotoxin [Compound 16] | 32.3 ± 1.87 µM | 22.3 ± 1.46 µM | 68.3 ± 4.5 µM | 
4 | COc1cc(C2c3cc4c(cc3C(O)C3COC(=O)C23)OCO4)cc(OC)c1O (centres unmarked) [4′-Demethylepipodophyllotoxin, 4′-demethylepipodophyllotoxin, reference compound] | 63.09 ± 0.49 µM | 49.32 ± 0.38 µM | 52.9 ± 0.85 µM | 
5 | COc1cc([C@@H]2c3cc4c(cc3[C@@H](Sc3ccc(F)cc3)[C@H]3COC(=O)[C@H]23)OCO4)cc(OC)c1O [Compound 6, 4β-S-(4-fluorobenzene-1)-4′-demethylepipodophyllotoxin] | 55.28 ± 0.21 µM | 4.24 ± 0.97 µM | 51 ± 0.88 µM | 
6 | COc1cc([C@@H]2c3cc4c(cc3[C@@H](Sc3nc5cc(F)ccc5s3)[C@H]3COC(=O)[C@H]23)OCO4)cc(OC)c1O [Compound 8, 4β-S-(5-fluorobenzothiazol-2)-4′-demethylepipodophyllotoxin] | 2.3 ± 0.12 µM | 1.49 ± 0.12 µM | 966.2 ± 7.31 µM | toxicity on normal cell line MRC-5 compared with etoposide [4]: significantly lower; antitumor activity on A549 compared with etoposide [5]: significantly improved; antitumor activity on MCF7 compared with etoposide [6]: significantly improved; toxicity on normal cell line HMEC compared with etoposide [7]: significantly lower; toxicity on normal cell line H8 compared with etoposide [8]: significantly lower
7 | COc1cc(C2c3cc4c(cc3C(Sc3nc5cc(F)ccc5o3)C3COC(=O)C23)OCO4)cc(OC)c1OC (stereo not drawn) [Compound 9, 4β-S-(5-Fluorobenzoxazol-2)-podophyllotoxin] |  |  | > 1000 µM | 
8 | COc1cc([C@@H]2c3cc4c(cc3[C@@H](Sc3nc5cc(F)ccc5o3)[C@H]3COC(=O)[C@H]23)OCO4)cc(OC)c1O [Compound 10, 4β-S-(5-fluorobenzoxazol-2)-4′-demethylepipodophyllotoxin] | 1.49 ± 0.14 µM | 1.55 ± 0.29 µM | 2000 ± 12.8 µM | IC50 ([4]; read-out: IC50 MRC-5, normal cell line, human embryonic lung cells MRC-5): 348.9 ± 3.1 µM; toxicity on normal cell line MRC-5 compared with etoposide [4]: significantly lower; IC50 ([5]; human lung cancer cell A549): 2340 ± 160 nM; antitumor activity on A549 compared with etoposide [5]: significantly improved; antitumor activity on MCF7 compared with etoposide [6]: significantly improved; IC50 ([7]; read-out: IC50 HMEC, normal cell line, human mammary epithelial cells HMEC): 323.4 ± 3.21 µM; toxicity on normal cell line HMEC compared with etoposide [7]: significantly lower; IC50 ([8]; read-out: IC50 H8, normal cell line, human cervical immortalized cells H8): 518.9 ± 1.9 µM; toxicity on normal cell line H8 compared with etoposide [8]: significantly lower
9 | COc1cc([C@@H]2c3cc4c(cc3[C@@H](Sc3ccc5ccccc5c3)[C@H]3COC(=O)[C@H]23)OCO4)cc(OC)c1O [Compound 20, 4β-S-(naphthalen-2)-4′-demethylepipodophyllotoxin] | 5.54 ± 0.3 µM | 6.02 ± 0.25 µM | 76.8 ± 2.11 µM | 
10 | COc1cc([C@@H]2c3cc4c(cc3[C@@H](Sc3nc5ncccc5[nH]3)[C@H]3COC(=O)[C@H]23)OCO4)cc(OC)c1O [Compound 22, 4β-S-(1H-imidazo[4,5-B]pyridin-2)-4′-demethylepipodophyllotoxin] | > 100 µM | 8.31 ± 0.43 µM | 33.5 ± 3.25 µM | 
11 | COc1cc([C@@H]2c3cc4c(cc3[C@@H](Sc3nnnn3-c3ccccc3)[C@H]3COC(=O)[C@H]23)OCO4)cc(OC)c1O [Compound 24, 4β-S-(1-phenyltetrazol-5)-4′-demethylepipodophyllotoxin] | 9.73 ± 0.11 µM | 59.69 ± 0.31 µM | 71 ± 3.67 µM | 
